Experimental data taken from the supplement of paper PMC10307832.

Key:
Assay in all cases: relative viability (nuclei count vs DMSO), 5 days (fraction); higher = more cells survive
NCI-H441 = test system: NCI-H441
Procedure, shortened: (§1)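 For relative viability, nuclei counts in treated wells were divided by those in vehicle wells. Lung cancer cell lines had been pin-tool dosed in 1536-well plates the day after seeding and cultured for 5 days, then fixed and stained in one step (final 0.05% Triton X-100, 1% formaldehyde, 1 ug/ml Hoechst) and imaged at 4×. Doses were one drug alone or a fixed anchor-drug dose plus five library-drug doses (not always all listed) in √10 steps, and values are duplicate-plate medians.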

NCI-H1792 = test system: NCI-H1792
Procedure, shortened: as §1

ABC-1 = test system: ABC-1
Procedure, shortened: as §1

NCI-H23 = test system: NCI-H23
Procedure, shortened: as §1

LOU-NH91 = test system: LOU-NH91
Procedure, shortened: as §1

RERF-LC-KJ = test system: RERF-LC-KJ
Procedure, shortened: as §1

NCI-H322M = test system: NCI-H322M
Procedure, shortened: as §1

NCI-H2085 = test system: NCI-H2085
Procedure, shortened: as §1

NCI-H1355 = test system: NCI-H1355
Procedure, shortened: as §1

NCI-H1755 = test system: NCI-H1755
Procedure, shortened: as §1

NCI-H2023 = test system: NCI-H2023
Procedure, shortened: as §1

NCI-H2405 = test system: NCI-H2405
Procedure, shortened: as §1

NCI-H2170 = test system: NCI-H2170
Procedure, shortened: as §1

HOP-62 = test system: HOP-62
Procedure, shortened: as §1

NCI-H2009 = test system: NCI-H2009
Procedure, shortened: as §1

ChaGo-K-1 = test system: ChaGo-K-1
Procedure, shortened: as §1

SK-MES-1 = test system: SK-MES-1
Procedure, shortened: as §1

LCLC-97TM1 = test system: LCLC-97TM1
Procedure, shortened: as §1

NCI-H727 = test system: NCI-H727
Procedure, shortened: as §1

NCI-H650 = test system: NCI-H650
Procedure, shortened: as §1

NCI-H1437 = test system: NCI-H1437
Procedure, shortened: as §1

UMC-11 = test system: UMC-11
Procedure, shortened: as §1

Structure (SMILES): O=c1[nH]c2ccccc2n1C1CCN(CCCC(c2ccc(F)cc2)c2ccc(F)cc2)CC1 [Pimozide] + CCNC(=O)c1noc(-c2cc(C(C)C)c(O)cc2O)c1-c1ccc(CN2CCOCC2)cc1 [Luminespib] (partner 0.01 µM)
- relative viability (NCI-H441; first compound 0.08 µM): 0.413
- relative viability (NCI-H441; first compound 0.253 µM): 0.404
- relative viability (NCI-H441; first compound 0.8 µM): 0.332
- relative viability (NCI-H441; first compound 2.53 µM): 0.311
- relative viability (NCI-H441; first compound 8 µM): 0.3
- relative viability (NCI-H1792; first compound 0.08 µM): 0.525
- relative viability (NCI-H1792; first compound 0.253 µM): 0.424
- relative viability (NCI-H1792; first compound 0.8 µM): 0.403
- relative viability (NCI-H1792; first compound 2.53 µM): 0.477
- relative viability (NCI-H1792; first compound 8 µM): 0.498
- relative viability (ABC-1; first compound 0.08 µM): 0.75
- relative viability (ABC-1; first compound 0.253 µM): 0.519
- relative viability (ABC-1; first compound 0.8 µM): 0.367
- relative viability (ABC-1; first compound 2.53 µM): 0.675
- relative viability (ABC-1; first compound 8 µM): 0.433
- relative viability (NCI-H23; first compound 0.08 µM): 0.236
- relative viability (NCI-H23; first compound 0.8 µM): 0.241
- relative viability (NCI-H23; first compound 2.53 µM): 0.195
- relative viability (NCI-H23; first compound 8 µM): 0.218
- relative viability (LOU-NH91; first compound 0.08 µM): 0.377
- relative viability (LOU-NH91; first compound 0.253 µM): 0.345
- relative viability (LOU-NH91; first compound 0.8 µM): 0.399
- relative viability (LOU-NH91; first compound 2.53 µM): 0.359
- relative viability (LOU-NH91; first compound 8 µM): 0.313
- relative viability (RERF-LC-KJ; first compound 0.08 µM): 1.09
- relative viability (RERF-LC-KJ; first compound 0.253 µM): 1.14
- relative viability (RERF-LC-KJ; first compound 0.8 µM): 1.08
- relative viability (RERF-LC-KJ; first compound 2.53 µM): 1.12
- relative viability (RERF-LC-KJ; first compound 8 µM): 0.964
- relative viability (NCI-H322M; first compound 0.253 µM): 0.899
- relative viability (NCI-H322M; first compound 0.8 µM): 0.858
- relative viability (NCI-H322M; first compound 2.53 µM): 0.942
- relative viability (NCI-H322M; first compound 8 µM): 0.743
- relative viability (NCI-H2085; first compound 0.08 µM): 0.515
- relative viability (NCI-H2085; first compound 0.253 µM): 0.485
- relative viability (NCI-H2085; first compound 0.8 µM): 0.4
- relative viability (NCI-H2085; first compound 2.53 µM): 0.496
- relative viability (NCI-H2085; first compound 8 µM): 0.322
- relative viability (NCI-H1355; first compound 0.08 µM): 0.728
- relative viability (NCI-H1355; first compound 0.253 µM): 0.63
- relative viability (NCI-H1355; first compound 0.8 µM): 0.633
- relative viability (NCI-H1355; first compound 2.53 µM): 0.557
- relative viability (NCI-H1355; first compound 8 µM): 0.642
- relative viability (NCI-H1755; first compound 0.08 µM): 0.433
- relative viability (NCI-H1755; first compound 0.253 µM): 0.418
- relative viability (NCI-H1755; first compound 0.8 µM): 0.373
- relative viability (NCI-H1755; first compound 2.53 µM): 0.526
- relative viability (NCI-H1755; first compound 8 µM): 0.476
- relative viability (NCI-H2023; first compound 0.08 µM): 0.755
- relative viability (NCI-H2023; first compound 0.253 µM): 0.707
- relative viability (NCI-H2023; first compound 0.8 µM): 0.709
- relative viability (NCI-H2023; first compound 2.53 µM): 0.507
- relative viability (NCI-H2023; first compound 8 µM): 0.596
- relative viability (NCI-H2405; first compound 0.08 µM): 0.654
- relative viability (NCI-H2405; first compound 0.253 µM): 0.717
- relative viability (NCI-H2405; first compound 0.8 µM): 0.618
- relative viability (NCI-H2405; first compound 2.53 µM): 0.559
- relative viability (NCI-H2405; first compound 8 µM): 0.315
- relative viability (NCI-H2170; first compound 0.08 µM): 0.527
- relative viability (NCI-H2170; first compound 0.253 µM): 0.73
- relative viability (NCI-H2170; first compound 0.8 µM): 0.779
- relative viability (NCI-H2170; first compound 2.53 µM): 0.624
- relative viability (NCI-H2170; first compound 8 µM): 0.671
- relative viability (HOP-62; first compound 0.08 µM): 0.995
- relative viability (HOP-62; first compound 0.253 µM): 0.875
- relative viability (HOP-62; first compound 0.8 µM): 0.709
- relative viability (HOP-62; first compound 2.53 µM): 0.904
- relative viability (HOP-62; first compound 8 µM): 0.873
- relative viability (NCI-H2009; first compound 0.08 µM): 0.984
- relative viability (NCI-H2009; first compound 0.253 µM): 1.01
- relative viability (NCI-H2009; first compound 0.8 µM): 0.981
- relative viability (NCI-H2009; first compound 2.53 µM): 1.05
- relative viability (NCI-H2009; first compound 8 µM): 0.842
- relative viability (ChaGo-K-1; first compound 0.08 µM): 0.48
- relative viability (ChaGo-K-1; first compound 0.253 µM): 0.472
- relative viability (ChaGo-K-1; first compound 0.8 µM): 0.375
- relative viability (ChaGo-K-1; first compound 2.53 µM): 0.496
- relative viability (ChaGo-K-1; first compound 8 µM): 0.484
- relative viability (SK-MES-1; first compound 0.08 µM): 0.859
- relative viability (SK-MES-1; first compound 0.253 µM): 0.766
- relative viability (SK-MES-1; first compound 0.8 µM): 0.702
- relative viability (SK-MES-1; first compound 2.53 µM): 0.815
- relative viability (SK-MES-1; first compound 8 µM): 0.596
- relative viability (LCLC-97TM1; first compound 0.08 µM): 0.89
- relative viability (LCLC-97TM1; first compound 0.253 µM): 0.689
- relative viability (LCLC-97TM1; first compound 0.8 µM): 0.62
- relative viability (LCLC-97TM1; first compound 2.53 µM): 0.632
- relative viability (LCLC-97TM1; first compound 8 µM): 0.679
- relative viability (NCI-H727; first compound 0.08 µM): 0.321
- relative viability (NCI-H727; first compound 0.253 µM): 0.3
- relative viability (NCI-H727; first compound 0.8 µM): 0.297
- relative viability (NCI-H727; first compound 2.53 µM): 0.593
- relative viability (NCI-H727; first compound 8 µM): 0.25
- relative viability (NCI-H650; first compound 0.08 µM): 0.765
- relative viability (NCI-H650; first compound 0.253 µM): 0.76
- relative viability (NCI-H650; first compound 0.8 µM): 0.838
- relative viability (NCI-H650; first compound 2.53 µM): 0.786
- relative viability (NCI-H650; first compound 8 µM): 0.765
- relative viability (NCI-H1437; first compound 0.08 µM): 1.13
- relative viability (NCI-H1437; first compound 0.253 µM): 1.09
- relative viability (NCI-H1437; first compound 0.8 µM): 1.12
- relative viability (NCI-H1437; first compound 2.53 µM): 0.988
- relative viability (NCI-H1437; first compound 8 µM): 0.922
- relative viability (UMC-11; first compound 0.08 µM): 1.2
- relative viability (UMC-11; first compound 0.253 µM): 1.03
- relative viability (UMC-11; first compound 0.8 µM): 0.976
- relative viability (UMC-11; first compound 2.53 µM): 1.11
- relative viability (UMC-11; first compound 8 µM): 1.18
